Paper PMC13131050, “Nicotinamide-Loaded Peptoid Nanotubes for Energy Regeneration in Acute Brain Injury” (ACS Nano, 2026)
Counter-ions that a name gives are not always drawn. Values belong to the compound of their own block, whether it stands above or below them.

Key:
[1] = AFM dimensions (height, length) of peptoid nanotubes; type: physicochemical; settings: nanotubes assembled from the named peptoid; ex-situ AFM on mica
Protocol: The lengths of PNTs can be adjusted through sonication.
PNTs were prepared using the slow evaporation method to self-assemble the peptoids. Typically, 1 μmol of peptoid was treated with 2 μL of trifluoroacetic acid (TFA) and dried under a flow of N2. Subsequently, 100 μL of acetonitrile was added, followed by the addition of 0.5 M NaOH. Deionized water was then added to bring the total volume to 200 μL. The samples were left at 4 °C for slow evaporation until a gel-like solution was obtained. Ex situ Atomic Force Microscopy (AFM) analysis was conducted using a Bruker MultiMode 8 in ScanAsyst mode at room temperature. For sample preparation, 1.5 μL of the self-assembled peptoid was diluted 40 times with deionized water and deposited on a mica substrate. After 5 min, Whatman filter paper was used to remove the solution, and then the dried mica substrate was further dried under N2 flow. The AFM probe consisted of silicon tips on silicon cantilevers (NCHV probes, k = 42 N/m, tip radius). Scanning electron microscopy (SEM) images were captured from the samples deposited on a silicon wafer using the Apreo2S scanning electron microscope by Thermo Fisher. The imaging process employed an ETD detector, an excitation voltage of 2 kV, a current of 0.2 nA, and a working distance of around 8 mm. […] XRD data were analyzed using custom Python scripts.

BV-2 cells [2] = test: Inhibition of DNS-PNT uptake by endocytic pathway inhibitors in BV-2 cells; type: cell-based, murine; settings: inhibitor 10 μM, 1 h pre-incubation, DNS-PNT 20 μg/mL 24 h with or without inhibitor; confocal imaging
Protocol: BV-2 cells were seeded at a density of 10,000 cells per well in a 96-well plate and cultured for 2 days. […] Following uptake, the medium containing PNTs was collected, and the cells were further incubated in fresh CCM for 1 or 24 h to allow exocytosis. The supernatant was subsequently collected, and the cells were washed three times with PBS. […] Fluorescence intensity was measured directly at 335/518 nm excitation and emission using a Synergy H1 multimodal microplate reader. For inhibition studies, BV-2 cells were seeded in 35 mm culture dishes (VWR) at a density of 300,000 cells and cultured for 2 days. […] The inhibitors used were chlorpromazine hydrochloride (Sigma), cytochalasin D (Sigma), amiloride hydrochloride hydrate (Sigma), sucrose (Thermo Fisher Scientific), and genistein (Sigma). − After treatment, cells were incubated with LysoTracker (75 nM, Invitrogen) for 1 h and fixed with 10% formalin phosphate buffer (Thermo Fisher Scientific) for 10 min. Subsequently, cells were stained with Tomato Lectin (1 μg/mL, 1 h) and ToPro-3 (0.1 μg/mL, 15 min; Thermo Fisher Scientific) in PBS at room temperature. Confocal images were acquired using a Nikon microscope (40× and […] oil immersion objectives, 1.30 numerical aperture; Nikon Corporation, Minato City, Tokyo, Japan).

OGD-exposed BV-2 cells = test: AlamarBlue cell viability / metabolic activity in OGD-exposed BV-2 cells; type: cell-based, murine; settings: 10 min OGD, then treatment, normalized to OGD controls
Protocol: Murine microglia BV-2 cells were purchased from ATCC (CRL-2469) and cultured based on previous literature. Briefly, BV-2 cells were cultured in cell culture media (CCM, high-glucose, phenol red-free DMEM supplemented with 10% FBS, 1% glutamine, and 1% 100 U/mL penicillin–streptomycin) at 37 °C under a 5% CO2 atmosphere. The passage number of BV-2 cells used in this study was between 7 and 15. At 70–80% confluency, BV-2 cells were passaged and seeded in a 96-well plate for further experiments. […] Following the addition of 50 μL of […] (DMSO), the absorbance was recorded by a Synergy H1 multimodal microplate reader at a wavelength of 540 nm. Cell viability was measured using the alamarBlue (aBlue) Cell Viability Reagent (Thermo Fisher Scientific). […] The plate was measured directly at 560/590 nm excitation/emission fluorescence on a Synergy H1 multimodal microplate reader. Readings were normalized to those of healthy controls. […] Data were collected using a Synergy H1 multimodal microplate reader. For the OGD studies, readings were normalized to the average value of the OGD controls.

[3] = tested on: OGD-exposed OWH brain slices; test: Propidium iodide cell death in OGD-exposed OWH brain slices; type: cell-based, rat; settings: OGD-exposed P10 OWH slices, cortex and striatum, 24 h treatment, n = 7
BV-2 cells [4] = test: MTT cell viability / cytotoxicity in healthy BV-2 cells; type: cell-based, murine; settings: 3 doses equivalent to NAM-PNT, 24 h (Figure S11)
Protocol: Murine microglia BV-2 cells were purchased from ATCC (CRL-2469) and cultured based on previous literature. Briefly, BV-2 cells were cultured in cell culture media (CCM, high-glucose, phenol red-free DMEM supplemented with 10% FBS, 1% glutamine, and 1% 100 U/mL penicillin–streptomycin) at 37 °C under a 5% CO2 atmosphere. The passage number of BV-2 cells used in this study was between 7 and 15. At 70–80% confluency, BV-2 cells were passaged and seeded in a 96-well plate for further experiments. […] Cell cytotoxicity was identified by the standard 3-(4,5-dimethylthiazol-2-yl)-2,5-diphenyltetrazolium bromide (MTT) assay (Thermo Fisher Scientific) on healthy cells. After 24 h, cells were incubated with fresh media containing 10 μL of 12 mM MTT solution in PBS for 4 h. Following the addition of 50 μL of […] (DMSO), the absorbance was recorded by a Synergy H1 multimodal microplate reader at a wavelength of 540 nm. Cell viability was measured using the alamarBlue (aBlue) Cell Viability Reagent (Thermo Fisher Scientific). […] The plate was measured directly at 560/590 nm excitation/emission fluorescence on a Synergy H1 multimodal microplate reader. Readings were normalized to those of healthy controls. […] Data were collected using a Synergy H1 multimodal microplate reader. For the OGD studies, readings were normalized to the average value of the OGD controls.

BV-2 cells [5] = test: Intracellular ATP level (luminescent ATP detection kit) in BV-2 cells; type: cell-based, murine
Protocol: We prepared OGD media as previously described. , OGD media consisted of 120 mM sodium chloride (NaCl, MilliporeSigma), 5 mM potassium chloride (KCl, MilliporeSigma), 2 mM calcium chloride (CaCl2, MilliporeSigma), 1.25 mM monosodium phosphate anhydrous (NaH2PO4, MilliporeSigma), 2 mM magnesium sulfate (MgSO4, MilliporeSigma), 25 mM sodium bicarbonate (NaHCO3, MilliporeSigma), and 20 mM HEPES in DI water. The OGD medium was sterile-filtered (0.2 μm), titrated to pH 7.4 with 1 M hydrochloric acid (Thermo Fisher Scientific) or 1 M sodium hydroxide (Thermo Fisher Scientific), bubbled with nitrogen gas (Praxair, Danbury, CT, USA) for at least 10 min, and prewarmed to 37 °C prior to use. […] Following the addition of 50 μL of […] (DMSO), the absorbance was recorded by a Synergy H1 multimodal microplate reader at a wavelength of 540 nm. Cell viability was measured using the alamarBlue (aBlue) Cell Viability Reagent (Thermo Fisher Scientific). […] The plate was measured directly at 560/590 nm excitation/emission fluorescence on a Synergy H1 multimodal microplate reader. Readings were normalized to those of healthy controls. […] Data were collected using a Synergy H1 multimodal microplate reader. For the OGD studies, readings were normalized to the average value of the OGD controls.

Height of nanotubes (ex-situ AFM) [1]: 7.78 ± 0.07 nm
Compound: Nbrpm6Nce3Nae3Nc2DNS [Pep-DNS]

Compound: OC[C@H]1O[C@@](CO)(O[C@H]2O[C@H](CO)[C@@H](O)[C@H](O)[C@H]2O)[C@@H](O)[C@@H]1O [sucrose]
Effect of inhibitor on DNS-PNT internalization into BV-2 cells (BV-2 cells [2]): reduced PNT uptake

Compound: CN(C)CCCN1c2ccccc2Sc2ccc(Cl)cc21 [chlorpromazine, chlorpromazine hydrochloride]
Effect of inhibitor on DNS-PNT internalization into BV-2 cells (BV-2 cells [2]): minimal impact

Compound: N=C(N)NC(=O)c1nc(Cl)c(N)nc1N [amiloride, amiloride hydrochloride hydrate]
Effect of inhibitor on DNS-PNT internalization into BV-2 cells (BV-2 cells [2]): minimal impact

Compound: C=C1[C@@H](C)[C@H]2[C@H](Cc3ccccc3)NC(=O)[C@]23[C@H](OC(C)=O)/C=C/[C@@](C)(O)C(=O)[C@@H](C)C/C=C/[C@H]3[C@@H]1O [Cytochalasin D, cytochalasin D]
Effect of inhibitor on DNS-PNT internalization into BV-2 cells (BV-2 cells [2]): significantly suppressed PNT signals

Compound: O=c1c(-c2ccc(O)cc2)coc2cc(O)cc(O)c12 [genistein]
Effect of inhibitor on DNS-PNT internalization into BV-2 cells (BV-2 cells [2]): significantly suppressed PNT signals

Compound: NC(=O)C1=CN([C@@H]2O[C@H](COP(=O)(O)OP(=O)(O)OC[C@H]3O[C@@H](n4cnc5c(N)ncnc54)[C@H](O)[C@@H]3O)[C@@H](O)[C@H]2O)C=CC1 [free NAD+, β-nicotinamide adenine dinucleotide]
Metabolic activity / cell viability (AlamarBlue) versus OGD control (OGD-exposed BV-2 cells): no effect
Cell death (percentage of PI+ cells) [3]: did not improve cell viability
Increase in cell viability with free drug (MTT) (BV-2 cells [4]): increase was not seen

Compound: NC(=O)c1cccnc1 [free NAM, nicotinamide]
Improvement of intracellular ATP level after OGD energy depletion (BV-2 cells [5]; OGD-exposed BV-2 cells, free drug): did not
Cellular ATP level in healthy cells (BV-2 cells [5]; healthy BV-2 cells, 24 h (Figure S16a)): limited increase compared to NAM-PNTs
Increase in cell viability with free drug (MTT) (BV-2 cells [4]): increase was not seen
